The values that follow come from PubChem BioAssay AID1197 (NMMLSC, 2008).

Activity calls are given as the source filed them. How the calls were made is not given here.

This assay concerns LNCaP cell loss, flow cytometry event count, 4 d. The assay is described as follows: LNCaP cell killing by flow cytometry event count, dose response, cytotoxicity control for prostate cell differentiation activator project (AID 1197). (In general: A flow cytometer gives signals particle by particle.)

As a reminder, the EC50 is the concentration that produces a half-maximal response. As for `COc1ccccc1N1CCN(Cc2cc(Br)c(O)c3ncccc23)CC1`, the EC50 was 0.351 µM.
Take `COc1ccc(-c2oc3ncn(CCN4CCOCC4)c(=N)c3c2-c2ccc(OC)cc2)cc1`: the EC50 was 0.198 µM.
For the molecule `COc1ccc(CCN2CCC(Nc3nc4ccccc4n3Cc3ccc(F)cc3)CC2)cc1`, the EC50 is 3.74 µM.
For the molecule `Cc1oc(-c2ccc(Cl)cc2)nc1CN1CCC(C(=O)NCCCN2CCOCC2)CC1`, the EC50 is 6.27 µM.
Next, `COc1ccc(-c2noc(-c3cc(Cl)ccc3Cl)n2)cc1OC`: 4.83 µM; `CCN(CCNC(=O)C1CCN(Cc2nc(-c3cccc(Cl)c3)oc2C)CC1)c1ccccc1`: 3.07 µM.
In the case of `COc1ccc(-c2cc(C(F)(F)F)nc(N3CCN(Cc4ccccc4)CC3)n2)cc1OC`, the half-maximal effective concentration (EC50) is 0.549 µM.
Take `Cc1ccc(OCC(O)Cn2c(=N)n(CCN3CCCCC3)c3ccccc32)cc1` (configuration not stated): the half-maximal effective concentration (EC50) was 8.65 µM.
The value for `Cn1nc(-c2ccc(Cl)cc2)c2cc(C(=O)NCCCN3CCOCC3)sc21` was 14.5 µM (inactive); that for `COc1ccccc1N1CCN(c2nc3ccccc3nc2C(C#N)C(=O)OC(C)C)CC1` (configuration not stated) was 2.77 µM; that for `CCOC(=O)c1c(C)[nH]c(C(=O)COC(=O)C2CC2C)c1C` (configuration not stated) was 0.166 µM.
Regarding `CCCN(CCC)CCNC(=O)C1CCN(Cc2nc(-c3ccc(Cl)cc3)oc2C)CC1`, the EC50 was 15.7 µM (inactive).
Next, `CCN(CCNC(=O)C1CCN(Cc2nc(-c3ccc(Cl)cc3)oc2C)CC1)c1ccccc1`: 8.33 µM.
Regarding `N=c1n(CCN2CCCCC2)c2ccccc2n1CC(O)COc1ccccc1` (configuration not stated), the EC50 was 19.2 µM (inactive).
With `COc1ccc(-c2noc(CCC(=O)NCCCN3CCC(Cc4ccccc4)CC3)n2)cc1`, the EC50 was 15.6 µM (inactive).
With `COc1ccc(Nc2nc(N)nc(CN3CCC(Cc4ccccc4)CC3)n2)cc1`, the EC50 is 17 µM (inactive).
Next, `Cc1cc2c(=O)n(CC(=O)N3CCN(c4ccccc4)CC3)cnc2s1`: 1.61 µM.
